What was measured:
[1] = target: T1, 6-phosphofructo-2-kinase/fructose-2,6-bisphosphatase 3 (Homo sapiens, UniProt Q16875); assay: Inhibition of iPFK2 (unknown origin) assessed as reduction in enzyme-mediated fructose-6-phosphate phosphorylation by measuring ATP consumption incubated for 3 hrs by luciferase-luciferin-coupled chemiluminescence assay
[2] = target: T1, 6-phosphofructo-2-kinase/fructose-2,6-bisphosphatase 3; assay: Inhibition of iPFK2 (unknown origin) assessed as reduction in enzyme-mediated fructose-6-phosphate phosphorylation by measuring NADH absorbance pre-incubated for 10 mins before ATP/substrate addition followed by incubation for 1 hr by UV-Visible spectrometry based iPFK-2/PPI-PFK coupled enzyme assay

T1 sequence (Q16875 whole entry): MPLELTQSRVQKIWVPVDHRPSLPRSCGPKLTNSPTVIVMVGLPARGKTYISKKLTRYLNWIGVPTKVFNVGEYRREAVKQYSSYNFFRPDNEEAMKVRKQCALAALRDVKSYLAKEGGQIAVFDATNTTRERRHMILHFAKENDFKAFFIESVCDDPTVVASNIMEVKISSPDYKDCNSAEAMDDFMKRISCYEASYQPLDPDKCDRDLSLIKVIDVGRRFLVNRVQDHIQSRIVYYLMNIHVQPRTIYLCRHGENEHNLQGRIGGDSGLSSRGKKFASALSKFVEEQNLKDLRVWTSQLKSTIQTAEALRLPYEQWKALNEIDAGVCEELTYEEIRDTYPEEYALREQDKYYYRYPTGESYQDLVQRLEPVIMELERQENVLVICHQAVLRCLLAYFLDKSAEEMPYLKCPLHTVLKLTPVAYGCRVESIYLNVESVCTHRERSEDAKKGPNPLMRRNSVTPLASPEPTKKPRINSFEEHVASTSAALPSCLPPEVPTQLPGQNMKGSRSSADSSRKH

Compound | IC50 [1] | IC50 [2]
Cc1nc(NCC2CCCNC2)cc(-c2ccc3ncsc3c2)n1 (stereo unspecified) | > 1000 nM | > 1000 nM
Cc1nc(NC(C)c2cccc(NC(=O)NC(N)=O)c2)cc(-c2ccc3ncsc3c2)n1 (stereo unspecified) | > 1000 nM | 500 nM
Cc1nc(N[C@@H]2CCCc3ccccc32)cc(-c2cc3ccccc3[nH]2)n1 | > 1000 nM | > 1000 nM
Cc1nc(NCc2cc(O)ccc2F)cc(-c2ccc3ncsc3c2)n1 | 500 nM | 500 nM
COc1ccc(F)c(CNc2cc(-c3ccc4ncsc4c3)nc(C)n2)c1 | 500 nM | > 1000 nM
Cc1nc(NC(C)c2cccc(OCc3cc(C)on3)c2)cc(-c2ccc3ncsc3c2)n1 (stereo unspecified) | 500 nM | 500 nM
Cc1nc(NC(C)c2cccc(OCC(=O)NC3CCCCC3)c2)cc(-c2ccc3ncsc3c2)n1 (stereo unspecified) | 500 nM | 500 nM
C#CCOc1cccc(C(C)Nc2cc(-c3ccc4ncsc4c3)nc(C)n2)c1 (stereo unspecified) | 500 nM | 500 nM
Cc1nc(NC(C)c2cccc(OCC(=O)C3CC3)c2)cc(-c2ccc3ncsc3c2)n1 (stereo unspecified) | > 1000 nM | > 1000 nM
Cc1nc(NC(C)c2cccc(OCC(=O)Nc3ccccc3)c2)cc(-c2ccc3ncsc3c2)n1 (stereo unspecified) | > 1000 nM | > 1000 nM
COc1cccc(-c2cc(NC(C)c3cccc(O)c3)nc(C)n2)c1F (stereo unspecified) | > 1000 nM | > 1000 nM
COC(=O)COc1ccc(F)c(CNc2cc(-c3ccc4ncsc4c3)nc(C)n2)c1 | > 1000 nM | > 1000 nM
Cc1nc(NC(C)c2cccc(-c3cnn(C)c3)c2)cc(-c2ccccc2C)n1 (stereo unspecified) | > 1000 nM | > 1000 nM
Cc1nc(NC(C)c2cccc(OCc3nc(C(=O)O)co3)c2)cc(-c2ccc3ncsc3c2)n1 (stereo unspecified) | 500 nM | > 1000 nM
COc1ccc(Br)c(CNc2cc(-c3ccc4ncsc4c3)nc(C)n2)c1 | > 1000 nM | 500 nM
Cc1nc(N[C@@H]2CCCc3ccccc32)cc(-c2cnc3ccccc3c2)n1 | 500 nM | > 1000 nM
COc1cccc(-c2cc(NC(C)c3cccc(-c4cnn(C)c4)c3)nc(C)n2)c1F (stereo unspecified) | 500 nM | > 1000 nM
CCN(CC)C(=O)COc1cccc(C(C)Nc2cc(-c3cccc(OC)c3F)nc(C)n2)c1 (stereo unspecified) | > 1000 nM | > 1000 nM
Cc1nc(N[C@@H]2CCCc3ccccc32)cc(-c2ccc(C)c(O)c2)n1 | 500 nM | 500 nM
Cc1nc(NC(C)c2cccc(OCC(=O)NCC(C)O)c2)cc(-c2ccc3ncsc3c2)n1 (stereo unspecified) | 500 nM | > 1000 nM
Cc1nc(NC(C)c2cccc(-c3cccnc3F)c2)cc(-c2ccc3ncsc3c2)n1 (stereo unspecified) | > 1000 nM | 500 nM
COc1cccc(Oc2cc(N[C@@H]3CCCc4ccccc43)nc(C)n2)c1 | – | > 1000 nM

Compound | IC50 [1] | IC50 [2]
Cc1nc(NC(C)c2cccc(NC(=O)c3ccn[nH]3)c2)cc(-c2ccc3ncsc3c2)n1 (stereo unspecified) | > 1000 nM | 500 nM
Cc1nc(NC(C)c2cccc(-c3c(C)noc3C)c2)cc(-c2ccc3ncsc3c2)n1 (stereo unspecified) | > 1000 nM | 500 nM
Cc1nc(NC(C)c2cccc(-c3ccnc(N)n3)c2)cc(-c2ccc3ncsc3c2)n1 (stereo unspecified) | – | > 1000 nM
Cc1nc(NC(C)c2cccc(OCCCN3CCCC3)c2)cc(-c2ccc3ncsc3c2)n1 (stereo unspecified) | – | 500 nM
COC(=O)c1coc(COc2cccc(C(C)Nc3cc(-c4ccc5ncsc5c4)nc(C)n3)c2)n1 (stereo unspecified) | > 1000 nM | > 1000 nM
Cc1nc(NC(C)c2cccc(OCC3CCCN(C(=O)OC(C)(C)C)C3)c2)cc(-c2ccc3occ(C)c3c2)n1 (stereo unspecified) | > 1000 nM | 500 nM
Cc1nc(NCc2cc(OCC(=O)N3CCOCC3)ccc2F)cc(-c2ccc3ncsc3c2)n1 | – | > 1000 nM
Cc1nc(NC(C)c2cccc(OCC(F)(F)F)c2)cc(-c2ccc3ncsc3c2)n1 (stereo unspecified) | > 1000 nM | 500 nM
Cc1nc(NC(C)c2cccc(-c3cnn(C)c3)c2)cc(-c2ccc(F)c(F)c2)n1 (stereo unspecified) | – | 500 nM
COCCNC(=O)COc1cccc(C(C)Nc2cc(-c3ccc4ncsc4c3)nc(C)n2)c1 (stereo unspecified) | – | 500 nM
Cc1nc(N[C@H](C)c2cccc(-c3cnn(C)c3)c2)cc(-c2ccc3ncsc3c2)n1 | – | > 1000 nM
COc1ccc(-c2cc(NC(C)c3cccc(-c4cnn(C)c4)c3)nc(C)n2)c(F)c1 (stereo unspecified) | – | > 1000 nM
Cc1nc(NC(C)c2cccc(-c3cnn(C)c3)c2)cc(-c2ccc(F)c(Cl)c2)n1 (stereo unspecified) | – | > 1000 nM
Cc1nc(NC(C)c2ccc(Cl)c(O)c2)cc(-c2ccc3occ(C)c3c2)n1 (stereo unspecified) | > 1000 nM | 500 nM
Cc1nc(NC(C)c2cccc(OCCn3cccn3)c2)cc(-c2ccc3ncsc3c2)n1 (stereo unspecified) | > 1000 nM | 500 nM
Cc1nc(NC(C)c2cccc(S(=O)(=O)NCCO)c2)cc(-c2ccc3ncsc3c2)n1 (stereo unspecified) | 500 nM | > 1000 nM
CC(=O)N1CCN(CCOc2cccc(C(C)Nc3cc(-c4ccc5ncsc5c4)nc(C)n3)c2)CC1 (stereo unspecified) | – | 500 nM
Cc1nc(NCc2cc(OCC(=O)N(C)C)ccc2F)cc(-c2ccc3ncsc3c2)n1 | – | 500 nM
Cc1nc(N[C@@H](C)c2ccccc2)cc(-c2ccc3ncsc3c2)n1 | > 1000 nM | > 1000 nM
Cc1nc(N[C@@H]2CCCc3ccccc32)cc(-c2ccc3nonc3c2)n1 | – | > 1000 nM
Cc1nc(NC(C)c2cccc(-c3cnn(C)c3)c2)cc(-c2ccc(C(F)(F)F)cc2)n1 (stereo unspecified) | > 1000 nM | > 1000 nM
Cc1nc(NC(C)c2ccc(F)c(-c3cnn(C)c3)c2)cc(-c2ccc3ncsc3c2)n1 (stereo unspecified) | > 1000 nM | 500 nM

Compound | IC50 [1] | IC50 [2]
COCCNS(=O)(=O)c1cccc(C(C)Nc2cc(-c3ccc4ncsc4c3)nc(C)n2)c1 (stereo unspecified) | > 1000 nM | > 1000 nM
Cc1nc(NC(C)c2cccc(-c3cnn(C)c3)c2)cc(-c2ccc3ccccc3c2)n1 (stereo unspecified) | – | > 1000 nM
CCN(CC)C(=O)COc1cccc(C(C)Nc2cc(-c3ccc4c(c3)N(C)CCO4)nc(C)n2)c1 (stereo unspecified) | – | > 1000 nM
COc1cccc(-c2cc(N[C@@H]3CCCc4ccccc43)nc(C)n2)c1F | > 1000 nM | 500 nM
Cc1nc(NC(C)c2cccc(OCC3CCNCC3)c2)cc(-c2ccc3ncsc3c2)n1 (stereo unspecified) | 500 nM | 500 nM
Cc1nc(N[C@H](C)c2ccc(F)c(-c3cnn(C)c3)c2)cc(-c2ccc3occ(C)c3c2)n1 | > 1000 nM | 500 nM
Cc1nc(N[C@H](C)c2cccc(-c3cnn(C)c3)c2)cc(-c2cccc(F)c2)n1 | – | > 1000 nM
Cc1nc(N[C@@H]2CCCc3ccccc32)cc(-c2ccc3ncccc3c2)n1 | – | > 1000 nM
Cc1nc(NC(C)c2cccc(NS(=O)(=O)c3cn(C)cn3)c2)cc(-c2ccc3ncsc3c2)n1 (stereo unspecified) | > 1000 nM | > 1000 nM
Cc1nc(NC(C)c2cccc(-c3cnn(CC(=O)O)c3)c2)cc(-c2ccc3ncsc3c2)n1 (stereo unspecified) | – | 500 nM
Cc1nc(NCC2CCCN(C(=O)c3ccc[nH]3)C2)cc(-c2ccc3ncsc3c2)n1 (stereo unspecified) | – | > 1000 nM
COc1ccc(-c2cc(NC(C)c3cccc(-c4cnn(C)c4)c3)nc(C)n2)cc1 (stereo unspecified) | 500 nM | 500 nM
Cc1nc(N[C@H](C)c2cccc(-n3cnnn3)c2)cc(-c2ccc3occ(C)c3c2)n1 | 500 nM | > 1000 nM
COC(=O)COc1cccc(C(C)Nc2cc(-c3ccc4ncsc4c3)nc(C)n2)c1 (stereo unspecified) | > 1000 nM | > 1000 nM
COc1cccc([C@H](C)Nc2cc(-c3ccc(C)c(N)c3)nc(C)n2)c1 | – | > 1000 nM
Cc1nc(NC(C)c2cccc(OCCS(C)(=O)=O)c2)cc(-c2ccc3ncsc3c2)n1 (stereo unspecified) | > 1000 nM | > 1000 nM
COc1cccc([C@H](C)Nc2cc(-c3ccc4ncccc4c3)nc(C)n2)c1 | – | > 1000 nM
CCN(CC)C(=O)COc1cccc(C(C)Nc2cc(-c3ccc4ccccc4c3)nc(C)n2)c1 (stereo unspecified) | – | 500 nM
Cc1nc(NC(C)c2cccc(OCC[C@H](O)c3ccccc3)c2)cc(-c2ccc3ncsc3c2)n1 (stereo partly specified) | – | > 1000 nM
COc1cc(C(C)Nc2cc(-c3ccc4ncsc4c3)nc(C)n2)ccn1 (stereo unspecified) | – | 500 nM
Cc1nc(N[C@@H](C)c2cccc(/C=C/C(=O)NC(C)(C)C)c2)cc(-c2ccc3ncsc3c2)n1 | – | 500 nM
Cc1nc(NC(C)c2cccc(S(N)(=O)=O)c2)cc(-c2ccc3ncsc3c2)n1 (stereo unspecified) | – | 500 nM

Compound | IC50 [1] | IC50 [2]
Cc1nc(NC(C)c2cccc(OCC(=O)O)c2)cc(-c2ccc3ncsc3c2)n1 (stereo unspecified) | – | > 1000 nM
Cc1nc(NC(C)c2cccc(OCC(=O)N3CCCC3)c2)cc(-c2ccc3ncsc3c2)n1 (stereo unspecified) | – | > 1000 nM
Cc1nc(N[C@H](C)c2ccnc(-c3cnn(C)c3)c2)cc(-c2ccc3occ(C)c3c2)n1 | – | > 1000 nM
Cc1nc(NC(C)c2cc(O)ccc2F)cc(-c2ccc3ncsc3c2)n1 (stereo unspecified) | – | > 1000 nM
Cc1nc(NC(C)c2cccc(OCC(=O)N(C)C)c2)cc(-c2ccc3ncsc3c2)n1 (stereo unspecified) | – | 500 nM
Cc1nc(N[C@@H](C)c2cccc(-c3cnc(N4CCCCC4)nc3)c2)cc(-c2ccc3ncsc3c2)n1 | – | 500 nM
Cc1nc(NC(C)c2cccc(OCC(N)=O)c2)cc(-c2cc3ccccc3n2C)n1 (stereo unspecified) | – | 500 nM
Cc1nc(NCC2CCCN(C(=O)CN(C)C(=O)c3ccccc3)C2)cc(-c2ccc3ncsc3c2)n1 (stereo unspecified) | – | > 1000 nM
Cc1nc(NC(C)c2cccc(OCC(=O)N3CC3C)c2)cc(-c2ccc3ncsc3c2)n1 (stereo unspecified) | – | 500 nM
CCN(CC)c1ncc(-c2cccc([C@H](C)Nc3cc(-c4ccc5ncsc5c4)nc(C)n3)c2)cn1 | – | 500 nM
Cc1nc(NC(C)c2cccc(-c3cnn(C)c3)c2)cc(-c2cc(F)c(F)c(F)c2)n1 (stereo unspecified) | – | 500 nM
Cc1cc(COc2cccc([C@@H](C)Nc3cc(-c4ccc5ncsc5c4)nc(C)n3)c2)n(C)n1 | – | > 1000 nM
Cc1nc(N[C@@H]2CCCc3ccccc32)cc(-c2ccc3c(c2)C(=O)C=CC3)n1 | – | 500 nM
Cc1nc(NC(C)c2cccc(OCCN(C)C)c2)cc(-c2ccc3ncsc3c2)n1 (stereo unspecified) | – | 500 nM
Cc1nc(N[C@@H]2CCCc3ccccc32)cc(-c2ccc3nccnc3c2)n1 | – | > 1000 nM
Cc1nc(NC(C)c2cccc(OCC#N)c2)cc(-c2ccc3ncsc3c2)n1 (stereo unspecified) | – | 500 nM
Cc1nc(NC(C)c2cccc(OCC(=O)N3CCC3)c2)cc(-c2ccc3ncsc3c2)n1 (stereo unspecified) | – | > 1000 nM
Cc1nc(NC(C)c2cccc(NC(=O)CN(C)C(=O)OC(C)(C)C)c2)cc(-c2ccc3ncsc3c2)n1 (stereo unspecified) | – | > 1000 nM
Cc1nc(N[C@@H]2CCCc3ccccc32)cc(-c2ccc(Cl)c(COC(C)C(=O)O)c2)n1 (stereo partly specified) | – | 500 nM
